US20230085307A1, “PYRIDAZINONE COMPOUND AND HERBICIDE” (NISSAN CHEMICAL CORPORATION, priority 2019, published 2023)

What was measured:
[1] = tested on: Chinese sprangletop; test: Test Example 3: herbicidal effect by foliage application, Wagner pot (Table 18, symbol D); format: in vivo, chinese sprangletop (Leptochloa chinensis); conditions: 320 g/ha
How it was run: (§1)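 Plants were sown in alluvial soil held under 0.1–0.5 cm standing water and grown 14 days in a greenhouse at 25–30 °C. An emulsifiable formulation, water-diluted to the set dose, was then sprayed onto the foliage, and effects were scored three weeks later using previously defined criteria.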

[2] = tested on: southern crabgrass; test: Test Example 5: herbicidal effect by foliage application, plastic box (Table 20, symbol F); format: in vivo, southern crabgrass (Digitaria ciliaris); conditions: 320 g/ha
How it was run: (§2)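 Plants were sown into sterilized diluvial soil under about 1.5 cm cover and kept in a greenhouse at 25° C. to 30° C. Fourteen days on, foliage received an even spray of the diluted emulsion. Herbicidal or crop effect was judged three weeks afterwards.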

[3] = tested on: chickweed; test: Test Example 4: herbicidal effect by soil treatment (Table 19, symbol P); format: in vivo, common chickweed (Stellaria media); conditions: amount of applied herbicide 320 g/ha
How it was run: (§3)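 In this soil treatment, the formulated compound reached the seeds only through the soil: seeds were buried about 1.5 cm deep in sterilized diluvial soil, then the diluted emulsion was sprayed over the surface. After three weeks at 25° C. to 30° C. in a greenhouse, effects were graded on criteria from an earlier test.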

[4] = tested on: Italian ryegrass; test: Test Example 5: herbicidal effect by foliage application, plastic box (Table 20, symbol K); format: in vivo, Italian ryegrass (Lolium multiflorum); conditions: 320 g/ha
How it was run: as §2

[5] = tested on: blackgrass; test: Test Example 4: herbicidal effect by soil treatment (Table 19, symbol J); format: in vivo, blackgrass (Alopecurus myosuroides); conditions: amount of applied herbicide 320 g/ha
How it was run: as §3

[6] = tested on: blackgrass; test: Test Example 5: herbicidal effect by foliage application, plastic box (Table 20, symbol J); format: in vivo, blackgrass (Alopecurus myosuroides); conditions: 320 g/ha
How it was run: as §2

[7] = tested on: windgrass; test: Test Example 4: herbicidal effect by soil treatment (Table 19, symbol L); format: in vivo, windgrass (Apera spica-venti); conditions: amount of applied herbicide 320 g/ha
Excerpt: (§4) [Test Example 4] Herbicidal Effect Test by Soil Treatment
(§5) Sterilized diluvial soil was placed in a plastic box having a length of 21 cm, a width of 13 cm, and a depth of 7 cm. The seeds of each of southern crabgrass, green foxtail, barnyard grass, wild oat, blackgrass, Italian ryegrass, windgrass, velvetleaf, redroot pigweed, lambsquarters, chickweed, false cleavers, persian speedwell, corn, soybean, rice, wheat, beet, and rapeseed were sowed in a spot-like manner and covered with the soil having a thickness of about 1.5 cm. Subsequently, the emulsion agent of the compound of the present invention prepared according to Formulation Example 2 was diluted with water so as to achieve a predetermined herbicide amount, and the diluted emulsion agent was uniformly applied to the surface of the soil with a small-sized spray. The plastic box was placed in a greenhouse at 25° C. to 30° C. for growth of the plants. Three weeks after the herbicide application, the effect of the herbicide on each plant was evaluated according to the criteria of Test Example 1.

[8] = tested on: green foxtail; test: Test Example 4: herbicidal effect by soil treatment (Table 19, symbol G); format: in vivo, green foxtail (Setaria viridis); conditions: amount of applied herbicide 320 g/ha
How it was run: as §3

[9] = tested on: redroot pigweed; test: Test Example 5: herbicidal effect by foliage application, plastic box (Table 20, symbol N); format: in vivo, redroot pigweed (Amaranthus retroflexus); conditions: 320 g/ha
How it was run: as §2

[10] = tested on: redroot pigweed; test: Test Example 4: herbicidal effect by soil treatment (Table 19, symbol N); format: in vivo, redroot pigweed (Amaranthus retroflexus); conditions: amount of applied herbicide 320 g/ha
How it was run: as §3

[11] = tested on: Italian ryegrass; test: Test Example 4: herbicidal effect by soil treatment (Table 19, symbol K); format: in vivo, Italian ryegrass (Lolium multiflorum); conditions: amount of applied herbicide 320 g/ha
Excerpt: as §4, §5

[12] = tested on: wild oat; test: Test Example 4: herbicidal effect by soil treatment (Table 19, symbol I); format: in vivo, wild oat (Avena fatua); conditions: amount of applied herbicide 320 g/ha
Excerpt: as §4, §5

[13] = tested on: persian speedwell; test: Test Example 5: herbicidal effect by foliage application, plastic box (Table 20, symbol R); format: in vivo, Persian speedwell (Veronica persica); conditions: 320 g/ha
How it was run: as §2

[14] = tested on: green foxtail; test: Test Example 5: herbicidal effect by foliage application, plastic box (Table 20, symbol G); format: in vivo, green foxtail (Setaria viridis); conditions: 320 g/ha
How it was run: as §2

[15] = tested on: velvetleaf; test: Test Example 4: herbicidal effect by soil treatment (Table 19, symbol M); format: in vivo, velvetleaf (Abutilon theophrasti); conditions: amount of applied herbicide 320 g/ha
How it was run: as §3

[16] = tested on: lambsquarters; test: Test Example 4: herbicidal effect by soil treatment (Table 19, symbol O); format: in vivo, lambsquarters (Chenopodium album); conditions: amount of applied herbicide 320 g/ha
How it was run: as §3

[17] = tested on: chickweed; test: Test Example 5: herbicidal effect by foliage application, plastic box (Table 20, symbol P); format: in vivo, common chickweed (Stellaria media); conditions: 320 g/ha
How it was run: as §2

[18] = tested on: barnyard grass; test: Test Example 5: herbicidal effect by foliage application, plastic box (Table 20, symbol H); format: in vivo, barnyard grass (Echinochloa crus-galli); conditions: 320 g/ha
How it was run: as §2

[19] = tested on: rice flat sedge; test: Test Example 3: herbicidal effect by foliage application, Wagner pot (Table 18, symbol E); format: in vivo, rice flat sedge (Cyperus iria); conditions: 320 g/ha
How it was run: as §1

[20] = tested on: lambsquarters; test: Test Example 5: herbicidal effect by foliage application, plastic box (Table 20, symbol O); format: in vivo, lambsquarters (Chenopodium album); conditions: 320 g/ha
How it was run: as §2

[21] = tested on: velvetleaf; test: Test Example 5: herbicidal effect by foliage application, plastic box (Table 20, symbol M); format: in vivo, velvetleaf (Abutilon theophrasti); conditions: 320 g/ha
How it was run: as §2

[22] = tested on: barnyard grass; test: Test Example 4: herbicidal effect by soil treatment (Table 19, symbol H); format: in vivo, barnyard grass (Echinochloa crus-galli); conditions: amount of applied herbicide 320 g/ha
How it was run: as §3

[23] = tested on: barnyard grass; test: Test Example 3: herbicidal effect by foliage application, Wagner pot (Table 18, symbol H); format: in vivo, barnyard grass (Echinochloa crus-galli); conditions: 320 g/ha
How it was run: as §1

[24] = tested on: wild oat; test: Test Example 5: herbicidal effect by foliage application, plastic box (Table 20, symbol I); format: in vivo, wild oat (Avena fatua); conditions: 320 g/ha
How it was run: as §2

[25] = tested on: southern crabgrass; test: Test Example 4: herbicidal effect by soil treatment (Table 19, symbol F); format: in vivo, southern crabgrass (Digitaria ciliaris); conditions: amount of applied herbicide 320 g/ha
How it was run: as §3

[26] = tested on: windgrass; test: Test Example 5: herbicidal effect by foliage application, plastic box (Table 20, symbol L); format: in vivo, windgrass (Apera spica-venti); conditions: 320 g/ha
How it was run: as §2

[27] = foliage application after 14-day growth, evaluated three weeks after application
[28] = foliage application, three weeks after application

CCOc1ccccc1-c1sc2c(Cl)cccc2c1-c1c(O)c(C)nn(C)c1=O [4-025]
herbicidal effect on Chinese sprangletop (D) [1]: 3 (Herbicidal rate of 40% or more and less than 70%) | herbicidal effect on F: southern crabgrass (evaluation grade 0-5) [2, 27]: 3 (Herbicidal rate of 40% or more and less than 70%) | Herbicidal effect by soil treatment, P: chickweed [3]: 0 (Herbicidal rate of 5% or less (almost no effect)) | herbicidal effect on K: Italian ryegrass (evaluation grade 0-5) [4, 27]: 3 (Herbicidal rate of 40% or more and less than 70%) | Herbicidal effect by soil treatment, J: blackgrass [5]: 1 (Herbicidal rate of 5% or more and less than 20%) | herbicidal effect on J: blackgrass (evaluation grade 0-5) [6, 27]: 4 (Herbicidal rate of 70% or more and less than 90%) | Herbicidal effect by soil treatment, L: windgrass [7]: 0 (Herbicidal rate of 5% or less (almost no effect)) | Herbicidal effect by soil treatment, G: green foxtail [8]: 4 (Herbicidal rate of 70% or more and less than 90%) | herbicidal effect on N: redroot pigweed (evaluation grade 0-5) [9, 27]: 4 (Herbicidal rate of 70% or more and less than 90%) | Herbicidal effect by soil treatment, N: redroot pigweed [10]: 3 (Herbicidal rate of 40% or more and less than 70%) | Herbicidal effect by soil treatment, K: Italian ryegrass [11]: 0 (Herbicidal rate of 5% or less (almost no effect)) | Herbicidal effect by soil treatment, I: wild oat [12]: 0 (Herbicidal rate of 5% or less (almost no effect)) | herbicidal effect on R: persian speedwell (evaluation grade 0-5) [13, 27]: 5 (Herbicidal rate of 90% or more (almost completely withered)) | herbicidal effect on G: green foxtail (evaluation grade 0-5) [14, 27]: 5 (Herbicidal rate of 90% or more (almost completely withered)) | Herbicidal effect by soil treatment, M: velvetleaf [15]: 2 (Herbicidal rate of 20% or more and less than 40%) | Herbicidal effect by soil treatment, O: lambsquarters [16]: 1 (Herbicidal rate of 5% or more and less than 20%) | herbicidal effect on P: chickweed (evaluation grade 0-5) [17, 27]: 4 (Herbicidal rate of 70% or more and less than 90%) | herbicidal effect on H: barnyard grass (evaluation grade 0-5) [18, 27]: 5 (Herbicidal rate of 90% or more (almost completely withered)) | herbicidal effect on rice flat sedge (E) [19]: 5 (Herbicidal rate of 90% or more (almost completely withered)) | herbicidal effect on O: lambsquarters (evaluation grade 0-5) [20, 27]: 3 (Herbicidal rate of 40% or more and less than 70%) | herbicidal effect on M: velvetleaf (evaluation grade 0-5) [21, 27]: 4 (Herbicidal rate of 70% or more and less than 90%) | Herbicidal effect by soil treatment, H: barnyard grass [22]: 3 (Herbicidal rate of 40% or more and less than 70%) | herbicidal effect on barnyard grass (H) [23]: 5 (Herbicidal rate of 90% or more (almost completely withered)) | herbicidal effect on I: wild oat (evaluation grade 0-5) [24, 27]: 0 (Herbicidal rate of 5% or less (almost no effect)) | Herbicidal effect by soil treatment, F: southern crabgrass [25]: 2 (Herbicidal rate of 20% or more and less than 40%) | herbicidal effect on L: windgrass (evaluation grade 0-5) [26, 27]: 5 (Herbicidal rate of 90% or more (almost completely withered))

COc1ccccc1-c1sc2cc(OCCS(C)(=O)=O)ccc2c1-c1c(O)c(C)nn(C)c1=O [3-127]
herbicidal effect on Chinese sprangletop (D) [1]: 3 (Herbicidal rate of 40% or more and less than 70%) | F: southern crabgrass, herbicidal effect grade [2, 28]: 5 (Herbicidal rate of 90% or more (almost completely withered)) | P: chickweed, herbicidal effect grade [3]: 1 (Herbicidal rate of 5% or more and less than 20%) | K: Italian ryegrass, herbicidal effect grade [4, 28]: 4 (Herbicidal rate of 70% or more and less than 90%) | J: blackgrass, herbicidal effect grade [5]: 3 (Herbicidal rate of 40% or more and less than 70%) | J: blackgrass, herbicidal effect grade [6, 28]: 5 (Herbicidal rate of 90% or more (almost completely withered)) | L: windgrass, herbicidal effect grade [7]: 5 (Herbicidal rate of 90% or more (almost completely withered)) | G: green foxtail, herbicidal effect grade [8]: 0 (Herbicidal rate of 5% or less (almost no effect)) | N: redroot pigweed, herbicidal effect grade [9, 28]: 5 (Herbicidal rate of 90% or more (almost completely withered)) | N: redroot pigweed, herbicidal effect grade [10]: 0 (Herbicidal rate of 5% or less (almost no effect)) | K: Italian ryegrass, herbicidal effect grade [11]: 4 (Herbicidal rate of 70% or more and less than 90%) | I: wild oat, herbicidal effect grade [12]: 0 (Herbicidal rate of 5% or less (almost no effect)) | R: persian speedwell, herbicidal effect grade [13, 28]: 5 (Herbicidal rate of 90% or more (almost completely withered)) | G: green foxtail, herbicidal effect grade [14, 28]: 5 (Herbicidal rate of 90% or more (almost completely withered)) | M: velvetleaf, herbicidal effect grade [15]: 0 (Herbicidal rate of 5% or less (almost no effect)) | O: lambsquarters, herbicidal effect grade [16]: 0 (Herbicidal rate of 5% or less (almost no effect)) | P: chickweed, herbicidal effect grade [17, 28]: 5 (Herbicidal rate of 90% or more (almost completely withered)) | H: barnyard grass, herbicidal effect grade [18, 28]: 3 (Herbicidal rate of 40% or more and less than 70%) | herbicidal effect on rice flat sedge (E) [19]: 5 (Herbicidal rate of 90% or more (almost completely withered)) | O: lambsquarters, herbicidal effect grade [20, 28]: 4 (Herbicidal rate of 70% or more and less than 90%) | M: velvetleaf, herbicidal effect grade [21, 28]: 5 (Herbicidal rate of 90% or more (almost completely withered)) | H: barnyard grass, herbicidal effect grade [22]: 0 (Herbicidal rate of 5% or less (almost no effect)) | herbicidal effect on barnyard grass (H) [23]: 4 (Herbicidal rate of 70% or more and less than 90%) | I: wild oat, herbicidal effect grade [24, 28]: 4 (Herbicidal rate of 70% or more and less than 90%) | F: southern crabgrass, herbicidal effect grade [25]: 0 (Herbicidal rate of 5% or less (almost no effect)) | L: windgrass, herbicidal effect grade [26, 28]: 5 (Herbicidal rate of 90% or more (almost completely withered))
